The NIST ThermoML archive (doi:10.1016/j.jct.2014.01.002)

Assay: excess molar enthalpy (molar enthalpy of mixing); xn = mol fraction of the nth substance listed
Conditions: 298.15 K, 99 kPa, Liquid, Calvet calorimetry

C1CCCCC1 [cyclohexane] + CCCCCC
Conditions	excess molar enthalpy [kcal/mol]
x1 = 0.0524	0.00813
x1 = 0.1136	0.017
x1 = 0.1603	0.0232
x1 = 0.2014	0.0282
x1 = 0.2485	0.0335
x1 = 0.3022	0.0392
x1 = 0.3647	0.0442
x1 = 0.4379	0.049
x1 = 0.4819	0.0509
x1 = 0.5388	0.0526
x1 = 0.5621	0.0528
x1 = 0.6166	0.0526
x1 = 0.6576	0.0516
x1 = 0.7177	0.0483
x1 = 0.7702	0.0435
x1 = 0.8085	0.0392
x1 = 0.8623	0.0318
x1 = 0.9276	0.0191

CCCCCO [pentan-1-ol] + CCCCCC
Conditions	excess molar enthalpy [kcal/mol]
x1 = 0.0241	0.0686
x1 = 0.0501	0.0848
x1 = 0.0573	0.0887
x1 = 0.1085	0.103
x1 = 0.1504	0.112
x1 = 0.1912	0.121
x1 = 0.2341	0.127
x1 = 0.2905	0.129
x1 = 0.3433	0.13
x1 = 0.3934	0.128
x1 = 0.4452	0.125
x1 = 0.5771	0.0982
x1 = 0.5794	0.0985
x1 = 0.6531	0.0798
x1 = 0.6979	0.0672
x1 = 0.7463	0.0535
x1 = 0.803	0.0368
x1 = 0.9021	0.0151
